# In patent US20030092197A1, “Proteins, genes and their use for diagnosis and treatment of cardiac response” (priority 2000, published 2003):
# Legend:
# [1] = system: spontaneous hypertensive rat; assay: Severity of cardiac myocyte histopathologic lesions graded by light microscopy; format: in vivo; conditions: scale of 0 to 3; 7 weekly injections; doxorubicin 1 mg/kg i.v., dexrazoxane 50 mg/kg i.p.
# Experimental: (§1) Cardiac response was induced by treatment with doxorubicin (DX) 1 mg/kg either alone or 30 min after an i.p. injection of dexrazoxane (ICRF) 50 mg/kg as described in the Examples infra. Treatment with ICRF alone was also administered. The treatment comprised of 7 weekly injections and samples were taken within 24 h after the final injection.
# Doxorubicin is a marketed anthracycline anticancer drug that causes a serious chronic cardiac toxicity. The spontaneous hypertensive rat is a useful animal model to study this toxicity. Furthermore by incorporating a cardioprotectant in the study design, the association of protein markers with the undesirable cardiotoxicity of the cardiotoxic agent is strengthened. Pretreatment with the intracellular iron chelating compound dexrazoxane (also referred to as ICRF-187) provides significant cardioprotection against clinical doxorubicin-induced cardiotoxicity and the drug has been FDA approved for this indication.
# Samples from animals treated to induce cardiac reponse or treated with a cardioprotectant can be collected, prepared and analysed as described herein. […]
# The severity of cardiac myocyte histopathologic lesions (cytoplasmic vacuolization and myofibrillar loss) was graded semiquantitatively by light microscopy on a scale of 0 to 3. […] Plasma cardiac troponin T concentrations were measured by chemiluminescent immunoassay. […]
# [2] = system: Cardiac Response-Associated Features (CRFs) in blood; assay: 2D gel electrophoresis of blood: CRFs differentially expressed in treated vs control animals (fold change); format: in vivo, rat
# Experimental: Using the following procedure, proteins in blood samples from control animals and animals having cardiac response were separated by isoelectric focusing followed by SDS-PAGE and analyzed. Serial samples were taken over time. Parts 6.1.2 to 6.1.15 (inclusive) of the procedure set forth are hereby designated as the “Reference Protocol”
# as §1
# Samples from animals treated to induce cardiac reponse or treated with a cardioprotectant can be collected, prepared and analysed as described herein. In the studies provided herein, animals were administered an intravenous injection of either (i) doxorubicin 1 mg/kg alone; (ii) doxorubicin 1 mg/kg 30 min after an i.p. injection of dexrazoxane 50 mg/kg or (iii) treated with dexrazoxane 50 mg/kg alone. Control groups received saline only. 7 weekly injections were administered and samples were collected 24 h after the final injection. Plasma was collected for discovery of novel biomarkers of cardiac damage using 2-D gel electrophoresis and for measurement of cardiac specific troponin T levels. Tissues were collected for histopathological confirmation of cardiac tissue injury.
# A protein assay (Pierce BCA Cat # 23225) was performed on each serum sample as received. Prior to protein separation, each sample was processed for selective depletion of certain proteins, in order to enhance and simplify protein separation and facilitate analysis by removing proteins that may interfere with or limit analysis of proteins of interest. See International Patent Application No. PCT/GB99/01742, filed Jun. 1, 1999, which is incorporated by reference in its entirety, with particular reference to the experimental protocol.
# Removal of albumin, haptoglobin, transferrin and immunoglobin G (IgG) from blood (“blood depletion”) was achieved by an affinity chromatography purification step in which the sample was passed through a series of ‘Hi-Trap’ columns containing immobilized antibodies for selective removal of albumin, haptoglobin and transferrin, and protein G for selective removal of immunoglobin G. Two affinity columns in a tandem assembly were prepared by coupling antibodies to protein G-sepharose contained in Hi-Trap columns (Protein G-Sepharose Hi-Trap columns (1 ml) Pharmacia Cat. No. 17-0404-01). This was done by circulating the following solutions sequentially through the columns: (1) Dulbecco's Phosphate Buffered Saline (Gibco BRL Cat. No. 14190-094); (2) concentrated antibody solution; (3) 200 mM sodium carbonate buffer, pH 8.35; (4) cross-linking solution (200 mM sodium carbonate buffer, pH 8.35, 20 mM dimethylpimelimidate); and (5) 500 mM ethanolamine, 500 mM NaCl. A third (un-derivatised) protein G Hi-Trap column was then attached to the lower end of the tandem column assembly.
# The chromatographic procedure was automated using an Akta Fast Protein Liquid Chromatography (FPLC) System such that a series of up to seven runs could be performed sequentially. The samples were passed through the series of 3 Hi-Trap columns in which the affinity chromatography media selectively bind the above proteins thereby removing them from the sample. Fractions (typically 3 ml per tube) were collected of unbound material (“Flowthrough fractions”) that eluted through the column during column loading and washing stages and of bound proteins (“Bound/Eluted fractions”) that were eluted by step elution with Immunopure Gentle Ag/Ab Elution Buffer (Pierce Cat. No. 21013). The eluate containing unbound material was collected in fractions which were pooled, desalted/concentrated by centrifugal ultrafiltration and stored to await further analysis by 2D PAGE. […]
smiles,measurement,setting,value
"COc1cccc2c1C(=O)c1c(O)c3c(c(O)c1C2=O)C[C@@](O)(C(=O)CO)C[C@@H]3O[C@H]1C[C@H](N)[C@H](O)[C@H](C)O1 [DX, doxorubicin]",average lesion score (cytoplasmic vacuolization and myofibrillar loss),[1],2.1
same,FC DX vs Control,"[2]; CRF 2, pI 5.7, MW 12,367 Da, P 0.010",−10.29
same,FC DX vs Control,"[2]; CRF 4, pI 5.2, MW 15,589 Da, P 1.7E-04",−9.20
same,FC DX vs Control,"[2]; CRF 6, pI 4.6, MW 34,921 Da, P 1.0E-03",−7.77
same,FC DX vs Control,"[2]; CRF 9, pI 5.2, MW 15,591 Da, P 1.5E-03",−5.72
same,FC DX vs Control,"[2]; CRF 10, pI 5, MW 51,899 Da, P 0.007",−6.99
same,FC DX vs Control,"[2]; CRF 19, pI 5.7, MW 68,576 Da, P 3.7E-04",−5.12
same,FC DX vs Control,"[2]; CRF 44, pI 5.8, MW 52,589 Da, P 1.1E-03",4.83
same,FC DX vs Control,"[2]; CRF 47, pI 4.4, MW 11,368 Da, P 0.010",6.81
same,FC DX vs Control,"[2]; CRF 58, pI 6.8, MW 34,063 Da, P 0.003",5.43
same,FC DX vs Control,"[2]; CRF 69, pI 5.2, MW 54,619 Da, P 0.005",−3.54
same,FC DX vs Control,"[2]; CRF 79, pI 6.8, MW 80,678 Da, P 1.6E-04",−4.51
same,FC DX vs Control,"[2]; CRF 82, pI 7.6, MW 77,393 Da, P 2.9E-04",−9.06
same,FC DX vs Control,"[2]; CRF 84, pI 4.8, MW 73,524 Da, P 1.1E-03",−8.60
same,FC DX vs Control,"[2]; CRF 90, pI 5.2, MW 67,336 Da, P 0.005",−3.93
same,FC DX vs Control,"[2]; CRF 92, pI 6.0, MW 63,037 Da, P 0.006",−8.26
same,FC DX vs Control,"[2]; CRF 103, pI 5, MW 56,471 Da, P 0.007",−6.02
same,FC DX vs Control,"[2]; CRF 104, pI 7, MW 53,989 Da, P 0.003",−11.48
same,FC DX vs Control,"[2]; CRF 112, pI 7.1, MW 47,499 Da, P 0.006",4.92
same,FC DX vs Control,"[2]; CRF 115, pI 7.1, MW 38,136 Da, P 2.3E-04",3.55
same,FC DX vs Control,"[2]; CRF 118, pI 6.5, MW 33,117 Da, P 3.4E-04",−4.82
same,FC DX vs Control,"[2]; CRF 122, pI 5.3, MW 24,915 Da, P 0.003",3.98
same,FC DX vs Control,"[2]; CRF 127, pI 4.8, MW 23,325 Da, P 0.006",5.25
same,FC DX vs Control,"[2]; CRF 129, pI 5.4, MW 17,765 Da, P 0.010",4.29
same,FC DX vs Control,"[2]; CRF 130, pI 4.8, MW 14,082 Da, P 0.009",−4.56
same,FC DX vs Control,"[2]; CRF 131, pI 4.3, MW 11,917 Da, P 0.009",4.28
same,FC DX vs Control,"[2]; CRF 134, pI 5.1, MW 51,125 Da, P 0.009",7.99
same,FC DX vs Control,"[2]; CRF 135, pI 7.3, MW 85,176 Da, P 1.2E-05",4.77
same,FC DX vs Control,"[2]; CRF 142, pI 5.4, MW 105,458 Da, P 0.007",−5.30
same,FC DX vs Control,"[2]; CRF 144, P 3.7E-04",−3.70
same,FC DX vs Control,"[2]; CRF 145, P 4.5E-04",3.68
same,FC DX vs Control,"[2]; CRF 146, P 6.2E-04",−4.19
same,FC DX vs Control,"[2]; CRF 147, P 0.002",−4.61
same,FC DX vs Control,"[2]; CRF 148, P 0.002",−5.11
same,FC DX vs Control,"[2]; CRF 149, P 0.002",−3.78
same,FC DX vs Control,"[2]; CRF 150, pI 4.11, MW 47828 Da, P 0.003",−8.39
same,FC DX vs Control,"[2]; CRF 151, P 0.003",3.50
same,FC DX vs Control,"[2]; CRF 152, P 0.003",−3.97
same,FC DX vs Control,"[2]; CRF 153, P 0.004",−4.57
same,FC DX vs Control,"[2]; CRF 154, pI 7.79, MW 55965 Da, P 0.004",5.39
same,FC DX vs Control,"[2]; CRF 155, P 0.004",−3.84
same,FC DX vs Control,"[2]; CRF 156, pI 6.89, MW 78237 Da, P 0.005",−3.99
same,FC DX vs Control,"[2]; CRF 157, P 0.005",−3.54
same,FC DX vs Control,"[2]; CRF 158, P 0.005",−4.59
same,FC DX vs Control,"[2]; CRF 159, P 0.006",4.04
same,FC DX vs Control,"[2]; CRF 160, P 0.006",−6.43
same,FC DX vs Control,"[2]; CRF 161, P 0.006",4.58
same,FC DX vs Control,"[2]; CRF 162, P 0.006",−4.37
same,FC DX vs Control,"[2]; CRF 163, P 0.006",5.15
same,FC DX vs Control,"[2]; CRF 164, pI 4.51, MW 72286 Da, P 0.007",4.75
same,FC DX vs Control,"[2]; CRF 165, P 0.007",−5.52
same,FC DX vs Control,"[2]; CRF 166, P 0.008",−3.86
same,FC DX vs Control,"[2]; CRF 167, P 0.008",3.77
same,FC DX vs Control,"[2]; CRF 168, P 0.009",4.20
"C[C@@H](CN1CC(=O)NC(=O)C1)N1CC(=O)NC(=O)C1 [ICRF, dexrazoxane]",average lesion score (cytoplasmic vacuolization and myofibrillar loss),[1],0
same,FC ICRF vs Control,"[2]; CRF 28, pI 5.7, MW 26,409 Da, P 0.004",−2.93
same,FC ICRF vs Control,"[2]; CRF 56, pI 4.9, MW 48,318 Da, P 0.004",3.12
same,FC ICRF vs Control,"[2]; CRF 162, P 0.003",−3.47
